This note sets out measurements from ChEMBL document CHEMBL4425099, “Use of Osmotic Pumps to Establish the Pharmacokinetic-Pharmacodynamic Relationship and Define Desirable Human Performance Characteristics for Aggrecanase Inhibitors” (J Med Chem, 2016).

Converted amounts (≈) assume the structure as drawn. The source made the active and inactive calls. The calls are words filed in the database; no cut-off is given here.

The term solubility denotes the concentration that dissolves in the medium under given conditions. A lower solubility goes with a poorly soluble substance. By Tmax is commonly meant the time at which the peak concentration occurs. Usually bioavailability stands for the share of a dose that reaches the circulation, judged against a reference dose that is usually intravenous. Low readings indicate little systemic uptake, high ones much systemic uptake. A word on the inhibition in vivo: it is how much of the control response was suppressed.

Series [1] in a line: Plasma concentration in Lewis rat model of MIA at 4.3 mg/mL, sc administered through infusion pump post 3 days MIA induction. It counts as ADME, organism-based.
The nature of series [2]: Plasma concentration in Lewis rat model of MIA at 10 mg/mL, sc administered through infusion pump post 3 days MIA induction. It counts as ADME, organism-based.
Series [3] can be described thus: Plasma concentration in Lewis rat model of MIA at 30 mg/mL, sc administered through infusion pump post 3 days MIA induction. It counts as ADME, organism-based.
Series [4] is described as follows: Ratio of plasma concentration in Lewis rat model of MIA at 4.3 mg/mL, sc administered through infusion pump post 3 days MIA induction to IC50 for human ADAMTS5 in presence of rat plasma. It counts as ADME, organism-based. Particulars: in vivo, 72 h.
The nature of series [5]: Ratio of plasma concentration in Lewis rat model of MIA at 10 mg/mL, sc administered through infusion pump post 3 days MIA induction to IC50 for human ADAMTS5 in presence of rat plasma. Particulars: in vivo, 72 h. It counts as ADME, organism-based.
Series [6] concerns Rattus norvegicus. Description: Reduction in ADAMTS-4/ADAMTS-5 mediated aggrecan cleavage products in Lewis rat model of MIA assessed as aggrecanase-cleaved fragments at 1.44 mg/mL, sc administered through infusion pump post 3 days MIA induction measured after 4 hrs of last dosage on day 7 by NITEGE sandwich ELISA. It counts as functional. For orientation: An ELISA detects its analyte on a solid surface through an enzyme-linked reagent.

The subject of series [7] is Rattus norvegicus. Briefly: Reduction in ADAMTS-4/ADAMTS-5 mediated aggrecan cleavage products in Lewis rat model of MIA assessed as aggrecanase-cleaved fragments at 4.3 mg/mL, sc administered through infusion pump post 3 days MIA induction measured after 4 hrs of last dosage on day 7 by NITEGE sandwich ELISA. It counts as functional.
For series [8], the system named is Rattus norvegicus. Briefly: Reduction in ADAMTS-4/ADAMTS-5 mediated aggrecan cleavage products in Lewis rat model of MIA assessed as aggrecanase-cleaved fragments at 10 mg/mL, sc administered through infusion pump post 3 days MIA induction measured after 4 hrs of last dosage on day 7 by NITEGE sandwich ELISA. It counts as functional.
Series [9] has as its system Rattus norvegicus. Briefly: Reduction in ADAMTS-4/ADAMTS-5 mediated aggrecan cleavage products in Lewis rat model of MIA assessed as aggrecanase-cleaved fragments at 30 mg/mL, sc administered through infusion pump post 3 days MIA induction measured after 4 hrs of last dosage on day 7 by NITEGE sandwich ELISA. It counts as functional.
Series [10] can be described thus: Solubility of the compound at pH 7.5. It counts as physicochemical. The note with it: buffer.
Series [11] can be described thus: Tmax in Lewis rat plasma at 30 mg/kg, po. It counts as ADME, organism-based.
The nature of series [12]: Ratio of plasma concentration in Lewis rat model of MIA at 30 mg/kg, po bid administered post 3 days MIA induction measured after 12 hrs of last dosage on day 7 to IC50 for human ADAMTS5 in presence of Lewis rat plasma. It counts as ADME, organism-based. The note with it: in vivo.
Series [13] is described as follows: Plasma concentration in Lewis rat model of MIA at […], po administered through infusion pump post 3 days MIA induction. It counts as ADME, organism-based.
Series [14] in a line: Plasma concentration in Lewis rat model of MIA at 6 mg/mL, […] post 3 days MIA induction. It counts as ADME, organism-based.
A short description of series [15]: Plasma concentration in Lewis rat model of MIA at 60 mg/mL, […] post 3 days MIA induction. It counts as ADME, organism-based.
Series [16] can be described thus: Ratio of plasma concentration in Lewis rat model of MIA at […], […] administered through infusion pump post 3 days MIA induction to IC50 for human ADAMTS5 in presence of rat plasma. It counts as ADME, organism-based. Particulars: in vivo, 72 h.
The nature of series [17]: Ratio of plasma concentration in Lewis rat model of MIA at 18 mg/mL, […] post 3 days MIA induction to IC50 for human ADAMTS5 in presence of rat plasma. Particulars: in vivo, 72 h. It counts as ADME, organism-based.
Series [18] concerns Rattus norvegicus. Briefly: Reduction in ADAMTS-4/ADAMTS-5 mediated aggrecan cleavage products in Lewis rat model of MIA assessed as aggrecanase-cleaved fragments at […] administered through infusion pump post 3 days MIA induction measured after 4 hrs of last dosage on day 7 by NITEGE sandwich ELISA. It counts as functional.
Series [19] deals with Rattus norvegicus. Briefly: Reduction in ADAMTS-4/ADAMTS-5 mediated aggrecan cleavage products in Lewis rat model of MIA assessed as aggrecanase-cleaved fragments at 6 mg/mL administered through infusion pump post 3 days MIA induction measured after 4 hrs of last dosage on day 7 by NITEGE sandwich ELISA. It counts as functional.
For series [20], the system named is Rattus norvegicus. Briefly: Reduction in ADAMTS-4/ADAMTS-5 mediated aggrecan cleavage products in Lewis rat model of MIA assessed as aggrecanase-cleaved fragments at 18 mg/mL administered through infusion pump post 3 days MIA induction measured after 4 hrs of last dosage on day 7 by NITEGE sandwich ELISA. It counts as functional.
The nature of series [21]: Oral bioavailability in rat at 10 mg/kg. The note with it: in vivo. It counts as ADME, organism-based.
The subject of series [22] is Rattus norvegicus. Description: Reduction in meniscal tear-induced osteoarthritis total joint score in Lewis rat surgical model at 30 and 100 mg/kg, po bid relative to vehicle control. It counts as functional, organism-based.
The nature of series [23]: Solubility of the compound at pH 7.7. It counts as physicochemical. Particulars: buffer.
Series [24] has as its system Rattus norvegicus. Briefly: Reduction in ADAMTS-4/ADAMTS-5 mediated aggrecan cleavage products in Lewis rat model of MIA assessed as aggrecanase-cleaved fragments at 3 mg/kg, po bid administered post 3 days MIA induction measured after 4 hrs of last dosage on day 7 by NITEGE sandwich ELISA relative to vehicle control. It counts as functional, organism-based.
For series [25], the system named is Rattus norvegicus. Description: Reduction in ADAMTS-4/ADAMTS-5 mediated aggrecan cleavage products in Lewis rat model of MIA assessed as aggrecanase-cleaved fragments at 30 mg/kg, po qd administered post 3 days MIA induction measured after 4 hrs of last dosage on day 7 by NITEGE sandwich ELISA. It counts as functional.
Series [26] in a line: Ratio of plasma concentration in Lewis rat model of MIA at 45 mg/kg, po qd administered post 3 days MIA induction measured after 4 hrs of last dosage on day 7 to IC50 for human ADAMTS5 in presence of Lewis rat plasma. It counts as ADME, organism-based. Particulars: in vivo.

`Cn1ccnc1[C@]1(CNC(=O)c2cc3cc(C(F)(F)F)ccc3o2)NC(=O)NC1=O`: the concentration at 72 h was 360 nM in series [1], 1100 nM in series [2] and 3600 nM in series [3]. Moreover, the values for the Ratio in series [4], in [5] and in [12] were 10, 31 and 10, respectively. Moreover, the “inhibition (INH)” value in the series with Rattus norvegicus [6] came to 16%; in the series with Rattus norvegicus [7], 57%; in the series on Rattus norvegicus [8], 64%; in the series on Rattus norvegicus [9], 76%. In series [10], this compound registered a solubility of 1740 µg/mL (≈ 4130 µM). Besides, in series [11], the Tmax was 1 h.
On to `O=C1NC(=O)[C@](CNC(=O)c2cc3cc(C(F)(F)F)ccc3o2)(C2CC2)N1`, for which the concentration at 72 h in series [13] stood at 200 nM; in series [14], 630 nM; in series [15], 2900 nM. In addition, the figures for the Ratio in series [16], in series [17] and in series [26] were 3.2, 35 and 10, respectively. Moreover, the “inhibition (INH)” value in the series with Rattus norvegicus [18] worked out at 21%; in the series with Rattus norvegicus [19], 44%; in the series with Rattus norvegicus [20], 56%. For the same compound, the bioavailability in series [21] is 83%. The inhibition result with Rattus norvegicus [22] and with Rattus norvegicus [24] was “Active” in each case. Further, the solubility in series [23] turned out to be 16 µg/mL (≈ 42 µM). Further, the inhibition in vivo at 30 mg/kg in the series on Rattus norvegicus [25] turned out to be 52%.
